The source of these data is patent US20250179047A1, “5-[7-(3,4-DIHYDRO-1H-ISOQUINOLINE-2-CARBONYL)-1,2,3,4 TETRAHYDROISOQUINOLIN-6-YL]-1H-PYRROLE-3-CARBOXAMIDE DERIVATIVES, PHARMACEUTICAL COMPOSITIONS CONTAINING THEM AND THEIR USES AS PRO-APOPTOTIC AGENTS” (LES LABORATOIRES SERVIER, priority 2022, published 2025).

As a reminder, the IC50 is the point on the concentration scale where inhibition reaches its midpoint. A high value points to weaker potency in that assay.

One experiment concerns the target BCL2 WT (Homo sapiens (Human), UniProt P10415). Put plainly: TR-FRET competitive binding assay, BCL2 WT. The following applies: Ki determined from IC50, read-out: TR_FRET EKI_Bcl2 WT. The method, boiled down:
(§1)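 Ki derived from IC50 (11-point dilution, 520/495 nm emission ratio) for displacing a fluorescein-labelled PUMA peptide (2 or 20 nM). Target was 0.5 nM E. coli-expressed Halo-tagged BCL2 (1-207) or BCLXL (2-196), terbium-labelled on Halo. Incubation 2 h at 23°C in pH 7.5 Hepes with 150 mM NaCl and 5% DMSO.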
(In general: In TR-FRET formats the signal depends on donor and acceptor labels being close together.)

The target in experiment [1] is BCL2 G101V (Homo sapiens, UniProt P10415, G101V). Nature of the experiment: TR-FRET competitive binding assay, BCL2 G101V. The following applies: BCL2 G101V; Ki determined from IC50; read-out: TR_FRET EKI_Bcl2 G101V. Put shortly:
as §1

For experiment [2], the system named is BCL2 G101V. Put plainly: TR-FRET competitive binding assay, BCL2 G101V. The following applies: ratio Ki BCL2 G101V / Ki BCL2 WT. Further details: species or system human. Put shortly:
as §1

In another experiment the target is BCL2 D103Y (Homo sapiens, UniProt P10415, D103Y). Put plainly: TR-FRET competitive binding assay, BCL2 D103Y. The note with it: Ki determined from IC50, read-out: TR_FRET EKI_Bcl2 D103Y. The method, boiled down:
as §1

Another experiment concerns the target BCL2 F104I (Homo sapiens, UniProt P10415, F104I). Nature of the experiment: TR-FRET competitive binding assay, BCL2 F104I. The following applies: Ki determined from IC50, read-out: TR_FRET EKI_Bcl2 F104I. Put shortly: as §1
In a further experiment the target is BCL2 D111A (Homo sapiens, UniProt P10415, D111A). Put plainly: TR-FRET competitive binding assay, BCL2 D111A. The note with it: Ki determined from IC50, read-out: TR_FRET EKI_Bcl2 D111A. How it is done:
The relative binding potency of each compound was determined in a competitive binding assay using time resolved-fluorescence resonance energy transfer (TR-FRET). The method utilised a fluorescein labelled peptide derived from PUMA (5Flu-Ahx-[…]-NH2 wherein Ahx means 6-hexanoic acid monomer and the amino acid sequence is referred to as SEQ ID:01) which binds to a terbium labelled BCL2 or BCLXL protein. The degree of binding or corresponding compound inhibition can be quantified by the TR-FRET signal between the terbium donor and fluorescein acceptor.
The human BCL2_wild-type (also named BCL2_wt), BCL2_G101V mutant and BCLXL_wild-type were E. coli expressed as a N-terminal Halo-fusion proteins and singly labelled with Terbium on the Halo protein to afford the following amino acid sequences:
wherein the BCL2(1-207) sequence corresponds to UniProtKB® primary accession number P10415 and the BCLXL(2-196) sequence corresponds to UniProtKB® primary accession number Q07817-1.
The assay was performed in a 40 μL volume in white 384-standard well plates (Corning #3574). An 11-point serial dilution of each compound was prepared in DMSO and transferred directly to plate followed by addition of fluorescein labelled peptide and lastly protein. Final assay conditions were 0.5 nM BCL2_wt, BCL2_G101V, BCL2_D103Y, BCL2_F104I, BCL2_D111A or BCLXL_wt, 2 or 20 nM fluorescein labelled peptide, 50 mM Hepes pH 7.5, 150 mM NaCl, 0.5 mM TCEP (Tris(2-carboxyethyl)phosphine), 0.05% Tween 20, 5% DMSO. The mixture was incubated for 2 hours at 23° C.
TR-FRET measurements were performed on a Biotek Synergy Neo plate reader. TR-FRET was measured by excitation of the Terbium-donor at 340 nm and subsequent (delay time 100 μs) measurement of terbium and fluorescein emission at 495 nm and 520 nm, respectively, over a collection time of 300 μs. The TR-FRET signal was calculated as the emission-ratio at 520 nm over 495 nm.
The TR-FRET ratio readout for test compounds was normalized against 0% inhibition controls wells and 100% inhibition control wells. Test compound potency (IC50) was estimated by nonlinear regression using the sigmoidal dose-response (variable slope) using Xlfit 4 (IDBS, Guildford, Surrey, UK, model 205). Were the IC50 could not be determined the % inhibition at the highest tested concentration is given.
y=(A+((B−A)/(1+((C/x)^D))))
where y is the normalized TR-TRET ratio measurement for a given concentration of test compound, x is the concentration of test compound, A is the estimated efficacy (% inhibition) at infinite compound dilution, and B is the maximal efficacy (% inhibition). C is the IC50 value and D is the Hill slope coefficient.
The K1 values were determined from the IC50 values according to Cer et al, Nucleic Acids Res, 2009, July 1; 37 (WebServer issue): W441-W445.

A further experiment has as its target BCLXL WT (Homo sapiens (Human), UniProt Q07817). Nature of the experiment: TR-FRET competitive binding assay, BCLXL WT. The note with it: for Ki: BCLXL WT, Ki determined from IC50, read-out: TR_FRET EKI BclxL; for TR_FRET EKI BCLxL/WT selectivty ratio: ratio Ki BCLxL / Ki BCL2 WT. The method, boiled down: as §1
For the next experiment, the system named is KMS-12-PE Bcl-2 WT. Nature of the experiment: In vitro cytotoxicity CellTiter-Glo 48 h, KMS-12-PE Bcl-2 WT. The class given is cell-based. The following applies: C50 = concentration needed to reach 50% of the cellular viability. The method, boiled down: (§2)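 Potency is expressed as C50, the compound concentration at which viability of engineered KMS-12-PE cells (Bcl-2 wild type or G101V) falls to 50%, determined from CellTiter-Glo luminescence after 48 h of treatment over 11 concentrations.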

For another experiment, the system named is KMS-12-PE Bcl-2 G101V. Nature of the experiment: In vitro cytotoxicity CellTiter-Glo 48 h, KMS-12-PE Bcl-2 G101V. Format: cell-based. The following applies: for Ratio (G101V/WT): C50 KMS-12-PE Bcl-2 G101V over C50 KMS-12-PE Bcl-2 WT; for IC50: 48 h, CellTiter-Glo, C50 = concentration needed to reach 50% of the cellular viability. The method, boiled down: as §2
(In ATP-based viability assays light output follows the ATP content of the culture.)

Chain of BCLXL WT (Q07817 other isoform, or with tags, fused parts or gaps): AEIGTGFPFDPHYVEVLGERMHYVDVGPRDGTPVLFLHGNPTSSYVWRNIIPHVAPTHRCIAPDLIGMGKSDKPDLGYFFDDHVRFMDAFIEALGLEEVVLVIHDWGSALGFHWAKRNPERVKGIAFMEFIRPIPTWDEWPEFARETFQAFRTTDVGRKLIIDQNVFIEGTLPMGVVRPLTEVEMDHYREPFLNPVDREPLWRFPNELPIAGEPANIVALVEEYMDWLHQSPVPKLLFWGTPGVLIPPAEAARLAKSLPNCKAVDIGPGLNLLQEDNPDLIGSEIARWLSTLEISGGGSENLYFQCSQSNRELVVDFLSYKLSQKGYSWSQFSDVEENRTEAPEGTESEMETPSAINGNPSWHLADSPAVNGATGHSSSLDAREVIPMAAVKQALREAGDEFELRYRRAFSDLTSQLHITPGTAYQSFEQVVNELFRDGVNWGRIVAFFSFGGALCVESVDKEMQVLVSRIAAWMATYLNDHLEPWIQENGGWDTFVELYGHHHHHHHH

On to `Cc1c(N(C(=O)c2cc(-c3cc4c(cc3C(=O)N3Cc5ccccc5C[C@H]3C)CN(C(=O)c3cnc(-c5ccccc5)s3)CC4)n(C)c2C)c2ccc(O)cc2)cc(C#N)n1C` [Example 17, N-(5-cyano-1,2-dimethyl-1H-pyrrol-3-yl)-N-(4-hydroxyphenyl)-1,2-dimethyl-5-{7-[(3R)-3-methyl-1,2,3,4-tetrahydroisoquinoline-2-carbonyl]-2-(2-phenyl-1,3-thiazole-5-carbonyl)-1,2,3,4-tetrahydroisoquinolin-6-yl}-1H-pyrrole-3-carboxamide], for which the Ki turned out to be 0.65 nM at BCL2 WT; 4 nM on BCL2 G101V [1]; 4.1 nM on BCL2 D103Y; 33.9 nM on BCL2 F104I; 3.34 nM on BCL2 D111A; 9.6 nM at BCLXL WT. For the same molecule, the “TR_FRET EKI G101V/WT selectivty ratio” value with BCL2 G101V [2] came out at 6.2. Also, the “TR_FRET EKI BCLxL/WT selectivty ratio” value on BCLXL WT worked out at 14.8. The IC50 stood at 0.0032 µM in the experiment with KMS-12-PE Bcl-2 WT (Homo sapiens, KMS-12-PE) and 0.0144 µM with KMS-12-PE Bcl-2 G101V (Homo sapiens, KMS-12-PE). The “Ratio (G101V/WT)” value in the experiment on KMS-12-PE Bcl-2 G101V came to 4.51.

With `Cc1c(N(C(=O)c2cc(-c3cc4c(cc3C(=O)N3Cc5ccccc5C[C@H]3C)CN(C(=O)C(F)(F)c3ccccc3)CC4)n(C)c2C)c2ccc(O)cc2)cc(C#N)n1C` [Example 18, N-(5-cyano-1,2-dimethylpyrrol-3-yl)-5-[2-(2,2-difluoro-2-phenylacetyl)-7-{[(3R)-3-methyl-3,4-dihydro-1H-isoquinolin-2-yl]carbonyl}-3,4-dihydro-1H-isoquinolin-6-yl]-N-(4-hydroxyphenyl)-1,2-dimethylpyrrole-3-carboxamide], the Ki on BCL2 WT is 0.3 nM; on BCL2 G101V [1], 4.2 nM; on BCL2 D103Y it was 1.23 nM; on BCL2 F104I, 53.5 nM; on BCL2 D111A it was 2.65 nM; on BCLXL WT it was 30.2 nM. Besides, in the experiment with BCL2 G101V [2], the “TR_FRET EKI G101V/WT selectivty ratio” value is reported as 14.0. Moreover, the “TR_FRET EKI BCLxL/WT selectivty ratio” value at BCLXL WT stood at 100.7. The IC50 in the experiment on KMS-12-PE Bcl-2 WT (Homo sapiens, KMS-12-PE) was 0.0055 µM; with KMS-12-PE Bcl-2 G101V (Homo sapiens, KMS-12-PE), 0.0477 µM. In addition, the “Ratio (G101V/WT)” value in the experiment with KMS-12-PE Bcl-2 G101V is 8.67.

Consider `Cc1c(N(C(=O)c2cc(-c3cc4c(cc3C(=O)N3Cc5ccccc5C[C@H]3C)CN(C(=O)C3CCN(c5ccccc5)C3=O)CC4)n(C)c2C)c2ccc(O)cc2)cc(C#N)n1C` (some centres unmarked) [Example 29], for which the Ki on BCL2 WT is 0.67 nM; on BCL2 G101V [1], 6.9 nM; on BCL2 D103Y it was 0.98 nM; at BCL2 F104I, 78 nM; at BCL2 D111A it was 1.29 nM; at BCLXL WT, 13.1 nM. In addition, in the experiment on BCL2 G101V [2], the “TR_FRET EKI G101V/WT selectivty ratio” value came out at 10.3. The “TR_FRET EKI BCLxL/WT selectivty ratio” value at BCLXL WT is reported as 19.6. For the same molecule, the results for the IC50 in the experiment on KMS-12-PE Bcl-2 WT and in the experiment on KMS-12-PE Bcl-2 G101V were 0.0164 µM and 0.0594 µM, respectively. For the same molecule, the “Ratio (G101V/WT)” value with KMS-12-PE Bcl-2 G101V worked out at 3.62.

Regarding `Cc1c(N(C(=O)c2cc(-c3cc4c(cc3C(=O)N3Cc5ccccc5C[C@H]3C)CN(C(=O)Cc3ccc(OCCN5CCC(O)CC5)cc3)CC4)n(C)c2C)c2ccc(O)cc2)cc(C#N)n1C` [Example 30, N-(5-cyano-1,2-dimethyl-1H-pyrrol-3-yl)-N-(4-hydroxyphenyl)-5-[2-(2-{4-[2-(4-hydroxypiperidin-1-yl)ethoxy]phenyl}acetyl)-7-[(3R)-3-methyl-1,2,3,4-tetrahydroisoquinoline-2-carbonyl]-1,2,3,4-tetrahydroisoquinolin-6-yl]-1,2-dimethyl-1H-pyrrole-3-carboxamide], the Ki at BCL2 WT stood at 0.1 nM; at BCL2 G101V [1], 0.2 nM; at BCL2 D103Y, 0.19 nM; at BCL2 F104I it was 0.26 nM; at BCL2 D111A, 0.12 nM; on BCLXL WT it was 1.1 nM. In addition, the “TR_FRET EKI G101V/WT selectivty ratio” value with BCL2 G101V [2] is 1.9. Moreover, the “TR_FRET EKI BCLxL/WT selectivty ratio” value on BCLXL WT was found to be 11.6. Further, the IC50 with KMS-12-PE Bcl-2 WT (Homo sapiens, KMS-12-PE) was determined as 0.0191 µM; in the experiment on KMS-12-PE Bcl-2 G101V (Homo sapiens, KMS-12-PE), 0.0909 µM. For the same molecule, in the experiment with KMS-12-PE Bcl-2 G101V, the “Ratio (G101V/WT)” value was found to be 4.76.
